The record followed here is patent US20250268934A1, “Compositions and Methods for the Treatment of Bacterial Vaginosis” (priority 2022, published 2025).

Assay [1] has as its system G. vaginalis ATCC 14018 planktonic cells. Kind of assay: Checkerboard assay / MIC against planktonic cells. It is filed as cell-based. To be noted: Gardnerella vaginalis, ATCC14018; agent alone, planktonic G. vaginalis 14018, 24 h anaerobic, 37° C.; read-out: minimal inhibitory concentration (MIC). As to the method: From each dilution of boric acid, 50 μl was added horizontally over 50 μl of metronidazole or tinidazole.
The FIC index (FICI) for the combination of two agents is the sum of their individual FIC values.

The subject of assay [2] is biofilm formation by G. vaginalis ATCC 14018. Kind of assay: Inhibition of biofilm formation (MIC-B, crystal violet staining, checkerboard). The note with it: for MIC: Gardnerella vaginalis, ATCC14018, read-out: MIC-B90. It is filed as cell-based, Gardnerella vaginalis. As to the method:
Combinations of boric acid with metronidazole or tinidazole were tested in vitro in a non-planktonic, biofilm model for inhibition of biofilm formation by G. vaginalis (ATCC strain 14018).
Bacterial strain, culture media and growth conditions: From the frozen stock (−80° C.), G. vaginalis ATCC 14018 was inoculated in three culture media and propagated at 37° C. for 48 h. Brain-heart infusion (BHI) broth (Difco BD, Franklin, NJ, USA) supplemented with horse serum 3% (JRH Biosciences, KS) was used to maintain microbial growth. […] (HBT) agar (Remel, Lenexa, KS, USA) was used to confirm the purity of the frozen stock. The inoculated broth and HBT agar were incubated anaerobically (10% hydrogen, 5% carbon dioxide and 85% nitrogen) using an anaerobic gloves box (Coy Laboratory Products, Inc., Grass Lake, MI, USA). After the incubation period, the bacterial cells were transferred to BHI broth supplemented with 1% glucose (Fisher Scientific, Waltham, MA, USA) (BHIG), every 24 h twice prior to the initiation of an experiment. In order to provide suitable conditions for G. vaginalis anaerobic growth and to avoid oxidative stress, culture media were pre-incubated in the anaerobic chamber at least overnight before bacterial inoculation.
Stock solutions of antibacterial agents: Antimicrobials were evaluated for their activity against biofilm-associated G. vaginalis. Metronidazole was purchased from Alfa Aesar (Ward Hill, Massachusetts, USA). Metronidazole was prepared as a stock solution of 10 mg mL^−1 in ddH2O. Tinidazole was purchased from TCI America (Portland, OR, USA). Tinidazole was prepared as a stock solution of 10 mg/ml in DMSO. Boric acid was purchased from Fisher Chemical (Hampton, NH, USA). A fresh 1 mg mL^−1 boric acid solution in BHIG was prepared at the beginning of each experiment within the anaerobic chamber, and mixed with BHIG that had been in the anaerobic chamber overnight (to avoid oxidative stress). The stock solutions of antimicrobials were sterilized using syringe filter 0.45 μm and kept in the refrigerator for a maximum of 3 weeks. On the day of the experiment, the stock solutions were diluted in the anaerobic chamber (to avoid oxidative stress) with pre-incubated BHIG broth to avoid changing the concentrations of nutrients of growth media.
Determination of minimum biofilm inhibitory concentrations (MICs-B): MIC determination was performed according to Sutyak et al. (Antimicrob Agents, Ch 56: 1756-61, 2012) with minor modifications. Each agent was diluted two-fold with BHIG broth into two separate 96-well non-tissue culture microplates. From each dilution of boric acid, 50 μl was added horizontally over 50 μl of metronidazole or tinidazole. The final volume of antimicrobial agents diluted into the broth was 100 μL in each well. The overnight cell culture at 3±2×10^8 CFU mL^−1 was diluted in BHIG to a final concentration of 5×10^6 CFU mL^−1. From the diluted bacterial cells, 100 μL was transferred into the wells containing predetermined concentrations of antimicrobials. Sterile sealing tape (Thermo Fisher Scientific, Rochester, NY) was used to prevent evaporation. The 96-well plate was then incubated anaerobically at 37° C. for 48 h. After incubation, the biofilm was stained using 0.1% crystal violet as described by Algburi et al. (Antimicrob Agents, Ch. 61: e00650-17, 2017); Weeks et al. (Pathog Dis 77(8):ftz059, 2019; doi: 10.1093/femspd/ftz059).
Biofilm staining using CV: Biofilm staining using CV was performed as described by Borucki et al. (Appl Environ Microbiol, 69(12):7336-42, 2003, doi: 10.1128/AEM.69.12.7336-7342.2003) with minor modifications. Briefly, after counting of the non-adherent cells, the biofilm was fixed at 60° C. for 60 minutes in an inverted position in an incubator (New Brunswick Scientific Co., Inc., NJ, USA). To each well, 125 μl of 0.1% CV was added and left at room temperature for 20 minutes.

The mark [3] stands for this setting: concentration needed to inhibit 90% of biofilm, agent alone.

For `Cc1ncc([N+](=O)[O-])n1CCO` [metronidazole], the MIC in assay [1] came out at 6.25 µg/mL; in assay [2] (setting [3]), 25 µg/mL. For the same compound, the “Biofilm mass as a percentage of an untreated control” value (shortened to “Biofilm mass as a percentage”) in assay [2] (well H1: metronidazole 25 μg/ml alone (boric acid 0)) was found to be 0%; in assay [2] (well H2: metronidazole 12.5 μg/ml alone (boric acid 0)), 11%; in assay [2] (well H3: metronidazole 6.25 μg/ml alone (boric acid 0)), 61%; in assay [2] (well H4: metronidazole 3.125 μg/ml alone (boric acid 0)), 73%; in assay [2] (well H5: metronidazole 1.5625 μg/ml alone (boric acid 0)), 88%; in assay [2] (well H6: metronidazole 0.78125 μg/ml alone (boric acid 0)), 96%. The “Biofilm mass as a percentage” value is on record as 95% in assay [2] (well H7: metronidazole 0.390625 μg/ml alone (boric acid 0)), 123% in assay [2] (well H8: metronidazole 0.195313 μg/ml alone (boric acid 0)) and 100% in assay [2] (well H9: metronidazole 0.09765625 μg/ml alone (boric acid 0)).

Regarding `CCS(=O)(=O)CCn1c([N+](=O)[O-])cnc1C` [tinidazole], the MIC in assay [1] came out at 1.56 µg/mL; in assay [2] (setting [3]), 25 µg/mL. In addition, the “Biofilm mass as a percentage” value in assay [2] (well H1: tinidazole 25 μg/ml alone (boric acid 0)) was 6%; in assay [2] (well H2: tinidazole 12.5 μg/ml alone (boric acid 0)), 15%; in assay [2] (well H3: tinidazole 6.25 μg/ml alone (boric acid 0)), 33%; in assay [2] (well H4: tinidazole 3.125 μg/ml alone (boric acid 0)) it was 104%; in assay [2] (well H5: tinidazole 1.5625 μg/ml alone (boric acid 0)), 133%; in assay [2] (well H6: tinidazole 0.78125 μg/ml alone (boric acid 0)), 134%. For the same compound, the “Biofilm mass as a percentage” value in assay [2] (well H7: tinidazole 0.390625 μg/ml alone (boric acid 0)) is on record as 88%; in assay [2] (well H8: tinidazole 0.195313 μg/ml alone (boric acid 0)), 92%; in assay [2] (well H9: tinidazole 0.09765625 μg/ml alone (boric acid 0)) it was 95%.

`OB(O)O` [boric acid]: the MIC in assay [1] stood at 1.25 µg/mL; in assay [2] (setting [3]) it was 2.5 µg/mL. The MIC-B90 in assay [2] (setting [3]) was 0.25 % m/v. Also, the “Biofilm mass as a percentage” value is listed as −2% in assay [2] (well A10: boric acid 0.5 m/v alone (metronidazole 0)); −1% in assay [2] (well A10: boric acid 0.5 m/v alone (tinidazole 0)); −1% in assay [2] (well B10: boric acid 0.25 m/v alone (metronidazole 0)); 0% in assay [2] (well B10: boric acid 0.25 m/v alone (tinidazole 0)); 85% in assay [2] (well C10: boric acid 0.125 m/v alone (metronidazole 0)); 63% in assay [2] (well C10: boric acid 0.125 m/v alone (tinidazole 0)). The “Biofilm mass as a percentage” value in assay [2] (well D10: boric acid 0.0625 m/v alone (metronidazole 0)) was determined as 95%; in assay [2] (well D10: boric acid 0.0625 m/v alone (tinidazole 0)), 88%; in assay [2] (well E10: boric acid 0.03125 m/v alone (metronidazole 0)), 92%; in assay [2] (well E10: boric acid 0.03125 m/v alone (tinidazole 0)), 93%; in assay [2] (well F10: boric acid 0.015625 m/v alone (metronidazole 0)), 100%; in assay [2] (well F10: boric acid 0.015625 m/v alone (tinidazole 0)) it was 95%. Further, the “Biofilm mass as a percentage” value in assay [2] (well G10: boric acid 0.007813 m/v alone (metronidazole 0)) is on record as 101%; in assay [2] (well G10: boric acid 0.007813 m/v alone (tinidazole 0)), 98%.
